Laboratory results as given in ChEMBL document CHEMBL3399920, “Microwave-assisted synthesis, characterization and cytotoxic studies of novel estrogen receptor α ligands towards human breast cancer cells” (Bioorg Med Chem Lett, 2015).

Key:
MCF7 = test: Cytotoxicity against human MCF7 cells after 48 hrs by MTT assay; assay type: functional, cell-based; conditions: MCF7, 48 h
HepG2 = test: Cytotoxicity against human HepG2 cells after 48 hrs by MTT assay; assay type: functional, cell-based; conditions: HepG2, 48 h
MDA-MB-231 = test: Cytotoxicity against human MDA-MB-231 cells after 48 hrs by MTT assay; assay type: functional, cell-based; conditions: MDA-MB-231, 48 h
[1] = Cytotoxicity against human MCF10A cells after 72 hrs by MTT assay; assay type: cell-based; conditions: MCF-10A
BT-549 = test: Cytotoxicity against human BT549 cells after 48 hrs by MTT assay; assay type: functional, cell-based; conditions: BT-549, 48 h

Oc1ccccc1-c1ccc2ccccc2n1
IC50 (MCF7): > 50 µM
IC50 (HepG2): > 50 µM

Cc1ccc2nc(-c3ccccc3Br)ccc2c1
IC50 (MCF7): > 50 µM
IC50 (HepG2): > 50 µM

Clc1ccc(-c2ccc3ccccc3n2)c(Cl)c1
IC50 (MDA-MB-231): > 100 µM
IC50 [1]: > 100 µM
IC50 (BT-549): > 100 µM
IC50 (MCF7): 25 µM
IC50 (HepG2): 31.6 µM

Nc1ccc(-c2ccc3ccc(Cl)cc3n2)cc1
IC50 (MDA-MB-231): > 100 µM
IC50 [1]: > 100 µM
IC50 (BT-549): > 100 µM
IC50 (MCF7): 6 µM
IC50 (HepG2): 11 µM

Cc1ccc2nc(-c3ccc(Cl)cc3Cl)ccc2c1
IC50 (MCF7): > 50 µM
IC50 (HepG2): > 50 µM

Brc1ccc(-c2ccc3ccccc3n2)cc1
IC50 (MDA-MB-231): > 100 µM
IC50 [1]: 60.3 µM
IC50 (BT-549): > 100 µM
IC50 (MCF7): 12 µM
IC50 (HepG2): 9 µM

Cc1ccc2nc(-c3ccc(N)cc3)ccc2c1
IC50 (MCF7): 34 µM
IC50 (HepG2): 41 µM

Cc1ccc2nc(-c3cc(O)ccc3O)ccc2c1
IC50 (MCF7): 28 µM
IC50 (HepG2): 19 µM

Cc1ccc2nc(-c3cccc([N+](=O)[O-])c3)ccc2c1
IC50 (MDA-MB-231): > 100 µM
IC50 [1]: > 100 µM
IC50 (BT-549): > 100 µM
IC50 (MCF7): 23 µM
IC50 (HepG2): 37 µM

Cc1ccc2nc(-c3ccccc3)ccc2c1
IC50 (MCF7): > 50 µM
IC50 (HepG2): > 50 µM
